# In a melting point compilation (Tetko et al.; mined from patent text by program, amines drawn as free bases though some values may be those of a salt):
row,SMILES,melting point
1,O=C(N[C@H]1CCN(Cc2ccccc2)C[C@H]1O)c1ccccc1O (relative stereo),127 °C
2,Clc1cccc(N2CCN(CCCCNc3ccc(-c4ccccc4)cn3)CC2)c1Cl,110 °C
3,CC(O)c1cc(Br)c(N)c(CN(C)C)c1 (stereo unspecified),69 to 72 °C
4,COc1ccc(C2CC(c3cccc(OC)c3)=NN2c2ccc(C(=O)O)cc2)cc1 (stereo unspecified),142 °C
5,CCCn1c(-c2ccc(O)cc2)cnc1SC,157 °C
6,CCOC(=O)C1Oc2cccnc2NC1=O (stereo unspecified),160 to 162 °C
7,O=C(O)/C=C/c1ccc(Oc2c(-c3ccccc3)c(C(F)(F)F)cc3ccccc23)cc1,210 to 211 °C
8,CN1C(=O)[C@@H](N)[C@@H]1c1ccccc1 (relative stereo),51.5 °C
9,COc1ccc(-c2ccc3cnc(Nc4ccc(N5CCN(C)CC5)cc4OC)nn23)cn1,170 to 173 °C
10,COc1cc(-c2nc(-c3ccc(N(C)C)cc3)c(C)o2)ccc1O,170 to 173 °C
11,O=C(c1ccccc1)N1Cc2c(-c3noc(C4CC4)n3)ncn2-c2cccc(F)c21,234 to 236 °C
12,CCCn1c2c(ccc1=O)C(NCCc1ccc(Cl)c(Cl)c1)CCC2 (stereo unspecified),105 to 107 °C
13,CCOc1nc(C)nc2oc(-c3ccco3)nc12,104 to 106 °C
14,O=C1SC(Cc2ccc(OCCc3c[nH]c4ccccc34)cc2)C(=O)N1C(c1ccccc1)(c1ccccc1)c1ccccc1 (stereo unspecified),81 to 82.5 °C
15,CC(=O)N(C)CCc1ccc(C=CC(=O)O)cc1,157 to 158 °C
16,CC(C)(C)n1nn[nH]c1=S,92 to 94 °C
17,CC(C)Cn1c(=O)[nH]c(=O)c2nc(-c3ccc(/C=C/C(=O)O)cc3)[nH]c21,> 300 °C
18,C=CCc1cc(N2CCN(c3ccncc3)CC2)ccc1O,180 to 182 °C
19,COC(=O)CCC(=O)c1cccc(Cl)c1O,60 to 62 °C
20,COc1ccc2c(c1)c(C=O)c(C)n2C(=O)c1ccc(Cl)cc1,150 to 152 °C
21,CNc1cc(F)ccc1C(=O)O,180 to 181 °C
22,CC(C)n1nc(C#Cc2cccc(F)c2)ccc1=O,95.5 to 96.5 °C
23,CC(C)C(O)(Cc1ccccc1)Cc1ccccc1,52 to 53 °C
24,CCc1ccccc1NC=C1C(=O)N(c2cccc(C#N)c2)N=C1C,211 °C
25,CCN1c2ncc(CCc3ccnc(CO)c3)cc2C(=O)N(C)c2ccc(Cl)nc21,133 to 134 °C
26,COc1ccc2c(c1)CCC1C2=CCC2(C)C(OC(C)=O)CCC12 (stereo unspecified),114 to 116 °C

row,SMILES,melting point
1,CC(C)(O)C#Cc1ccc(Br)cc1,62 °C
2,N#CC1(N)CCC2Cc3ccccc3CC2C1 (stereo unspecified),128 °C
3,OC(Cn1cncn1)(c1ccc(Cl)cc1)C(Cl)(Cl)C(Cl)Cl (stereo unspecified),168 to 169 °C
4,N#Cc1ccccc1N1CCc2ccccc21,94 to 96.5 °C
5,COC(=O)NNc1n[nH]c2cc(Cl)ccc12,223 to 224 °C
6,O=C(c1cccnc1)c1cc(Br)cc(Br)c1,124 to 126 °C
7,COc1ccc(-c2nc(-c3ccc(F)cc3)c(-c3ccncc3)[nH]2)cc1,264 to 265 °C
8,CC(C)[C@H]1CC[C@H](C(=O)CO)CC1,43 to 44 °C
9,Cn1cc(-c2ccc(Br)cc2)c(=O)c(-c2cccc(C(=O)O)c2)c1,259 to 263 °C
10,CCN(CC)CC(O)c1c(OC)ccc2c(C)c(C)oc12 (stereo unspecified),55 °C
11,CCOC(=O)/C=C/c1cn(Cc2ccc(OCc3ccccc3)cc2)nc1-c1ccc(F)cc1,113 to 114 °C
12,Cc1ccc(N)c(S)c1,90 °C
13,COc1ccc(/C=C/S(=O)(=O)N(C)c2ccccc2)cc1,126 to 129 °C
14,CC(=O)NCC(=O)c1ccccc1,69 °C
15,CC(C)C[C@H](NC(=O)CCOc1ccccc1)C(=O)N[C@@H](C(C)C)[C@@H](O)c1c(-c2ccccc2)c1=O,92 to 95 °C
16,Cn1nc(-c2c(Nc3ccccc3)nc(N)nc2-c2ccccc2)ccc1=O,252 to 254 °C
17,O=C(c1ccccc1)c1ccc(Oc2ccc(S(=O)(=O)Cc3ccccc3)cn2)cc1,146 to 147 °C
18,C[C@H](N)c1ccc(O)cc1,120 °C
19,COc1ccc(-c2cc3c(N4CCc5ccccc54)ncnc3[nH]2)cc1,> 300 °C
20,CCCCCc1ccc(-c2ccc(CCc3ccc(OCC)cc3)cc2)cc1,81 °C
21,COC(=O)C(OC)c1nsc2ccc(-n3c(=O)cc(C(F)(F)F)n(C)c3=O)cc12 (stereo unspecified),166 to 168 °C
22,COc1cc(OC)c(-c2cc3ccccc3n2C)cc1C=CC(=O)c1ccc(S(=O)(=O)NO[Si](C)(C)C(C)(C)C)cc1,129 to 131 °C
23,CN1CCC(c2c[nH]c3ccc(OS(=O)(=O)c4ccccc4)cc23)CC1,192 to 194 °C
24,Cc1cc2c(cc1Sc1ccc(C(=O)O)cn1)C(C)(C)CCC2(C)C,257 to 260 °C
25,COC(=O)COc1ccc(I)cc1,69 to 70 °C
